Our source for the EC50 values is patent US9693997B2, “Antiviral compounds” (priority 2013, dated 2017).

One may read the EC50 as the concentration that produces a half-maximal response.

In test [1] the test system is Pseudotyped HCV GT1b particles (HCVpp), entry into Huh7-high CD81 cells. The test can be described thus: microbe, parasite or virus in culture. The test is classed as cell-based, HCV GT1b Con1 strain. The settings on record: Hepatitis C virus, GT1B, 72 h, read-out: HCVpp GT-1b (EC50, μM).
Test [2] concerns pseudotyped VSV G particles (VSVpp) in Huh7-high CD81 cells. The test can be described thus: microbe, parasite or virus in culture. As to conditions: Vesicular stomatitis virus, 72 h, read-out: VSVpp (EC50, μM). Type of test: cell-based, vesicular stomatitis virus.

Counter-ions that a name gives are not always drawn. Where only a bound is given, the exact number is not on record here.

Take `Cc1ccc(-c2c(F)cc(Nc3nc(N)n[nH]3)cc2C(F)(F)F)cc1` [Compound 247, N^5-[6-Fluoro-4′-methyl-2-trifluoromethylbiphenyl-4-yl]-1H-[1,2,4]-triazole-3,5-diamine]: the EC50 in test [1] is 1.7 µM; in test [2], 10.7 µM.

Regarding `Nc1nc(Nc2cc(Cl)c(-c3ccc(NC(=O)C4CCC(F)(F)CC4)cc3)c(Cl)c2)n[nH]1` [Compound 250, 4,4-Difluorocyclohexanecarboxylic acid [4′-(5-amino-1H-[1,2,4]triazol-3-ylamino)-2′,6′-dichloro-biphenyl-4-yl]-amide], the EC50 was 0.013 µM in test [1] and 14 µM in test [2].

On to `Nc1nc(Nc2ccc(-c3ccccc3Cl)c(Cl)c2)n[nH]1` [Compound 155, N*3*-(2,2′-Dichloro-biphenyl-4-yl)-1H-[1,2,4]triazole-3,5-diamine], for which the EC50 in test [1] turned out to be 1.66 µM; in test [2] it was 7.46 µM.

As to `CN(C)CCOc1ccc(-c2c(Cl)cc(Nc3n[nH]c(N)n3)cc2Cl)cc1` [Compound 269, N*3*-[2,6-Dichloro-4′-(2-dimethylamino-ethoxy)-biphenyl-4-yl]-1H-[1,2,4]triazole-3,5-diamine], the EC50 in test [1] is 0.122 µM; in test [2], 6.09 µM.

Turning to `Nc1nc(Nc2cc(Cl)c(-c3ccc(OCC(=O)O)cc3)c(Cl)c2)n[nH]1` [Compound 285, [4′-(5-Amino-1H-[1,2,4]triazol-3-ylamino)-2′,6′-dichloro-biphenyl-4-yloxy]-acetic acid], the EC50 in test [1] is 4.97 µM; in test [2] it was greater than 10 µM.

As for `CC(C)(C)OC(=O)N1CCC(Oc2ccc(-c3c(Cl)cc(Nc4n[nH]c(N)n4)cc3C(F)(F)F)cc2)CC1` [Compound 138, 4-[4′-(5-Amino-1H-[1,2,4]triazol-3-ylamino)-6′-chloro-2′-trifluoromethyl-biphenyl-4-yloxy]-piperidine-1-carboxylic acid tert-butyl ester], the EC50 in test [1] was 0.162 µM; in test [2], greater than 10 µM.

Regarding `CC(C)(C)OC(=O)c1ccc(-c2c(Cl)cc(Nc3n[nH]c(N)n3)cc2C(F)(F)F)cc1` [Compound 200, tert-butyl 4′-(5-amino-1H-1,2,4-triazol-3-ylamino)-2′-chloro-6′-(trifluoromethyl)biphenyl-4-carboxylate], the EC50 is 0.574 µM in test [1] and greater than 10 µM in test [2].

Take `CS(=O)(=O)c1ccc(-c2ccc(Nc3n[nH]c(N)n3)cc2Cl)cc1` [Compound 154, N*3*-(2-Chloro-4′-methanesulfonyl-biphenyl-4-yl)-1H-[1,2,4]triazole-3,5-diamine]: the values for the EC50 in test [1] and in test [2] were 2.47 µM and 16.4 µM, respectively.

In the case of `CNC(=O)c1cc(-c2c(Cl)cc(Nc3n[nH]c(N)n3)cc2C(F)(F)F)ccc1F` [Compound 292, 4′-(5-amino-1H-1,2,4-triazol-3-ylamino)-2′-chloro-4-fluoro-N-methyl-6′-(trifluoromethyl)biphenyl-3-carboxamide], the concentration giving a half-maximal response (EC50) is 0.647 µM in test [1] and 29.2 µM in test [2].

On to `CC(C)(C)CCN(CCOc1ccc(-c2c(Cl)cc(Nc3n[nH]c(N)n3)cc2C(F)(F)F)cc1)CCC(C)(C)C` [Compound 137, N*3*-(4′-{2-[Bis-(3,3-dimethyl-butyl-amino)-ethoxy}-6-chloro-2-trifluoromethyl-biphenyl-4-yl]-1H-[1,2,4]triazole-3,5-diamine], for which the EC50 in test [1] was 0.062 µM; in test [2], greater than 10 µM.

As for `CC(C)(C)CCN1CCC(S(=O)(=O)c2ccc(-c3c(Cl)cc(Nc4n[nH]c(N)n4)cc3C(F)(F)F)cc2)CC1` [Compound 5, N*3*-{2-Chloro-4′-[1-(3,3-dimethyl-butyl)-piperidine-4-sulfonyl]-6-trifluoromethyl-biphenyl-4-yl}-1H-[1,2,4]triazole-3,5-diamine; hydrochloride], the EC50 is 0.005 µM in test [1] and greater than 10 µM in test [2].

In the case of `CS(=O)(=O)Nc1cccc(-c2c(Cl)cc(Nc3n[nH]c(N)n3)cc2C(F)(F)F)c1` [Compound 290, N-(4′-(5-amino-1H-1,2,4-triazol-3-ylamino)-2′-chloro-6′-(trifluoromethyl)biphenyl-3-yl)methanesulfonamide], the half-maximal effective concentration (EC50) in test [1] was determined as 0.149 µM; in test [2], 14.4 µM.

For `CS(=O)(=O)c1ccc(-c2c(F)cc(Nc3nc(N)n[nH]3)cc2F)cc1` [Compound 76, N^5-(2,6-difluoro-4′-(methylsulfonyl)biphenyl-4-yl)-1H-[1,2,4]-triazole-3,5-diamine], the EC50 was 0.246 µM in test [1] and greater than 10 µM in test [2].

As for `CS(=O)(=O)Nc1ccc(-c2c(Cl)cc(Nc3n[nH]c(N)n3)cc2Cl)c(F)c1` [Compound 28, N-[4′-(5-Amino-1H-[1,2,4]triazol-3-ylamino)-2′,6′-dichloro-2-fluoro-biphenyl-4-yl]-methanesulfonamide], the EC50 in test [1] came to 0.083 µM; in test [2], 4.02 µM.

For the compound `COc1ccc(-c2c(Cl)cc(Nc3n[nH]c(N)n3)cc2C(F)(F)F)cc1S(=O)(=O)N[C@H]1CC[C@H](O)CC1` [Compound 190, 4′-(5-amino-1H-1,2,4-triazol-3-ylamino)-2′-chloro-N-(trans-4-hydroxycyclohexyl)-4-methoxy-6′-(trifluoromethyl)biphenyl-3-sulfonamide], the EC50 in test [1] was 0.046 µM; in test [2], 56.1 µM.

With `CC(C)(C)OC(=O)N1CCC(CS(=O)(=O)c2ccc(-c3c(Cl)cc(Nc4n[nH]c(N)n4)cc3C(F)(F)F)cc2)CC1` [Compound 7, 4-[4′-(5-Amino-1H-[1,2,4]triazol-3-ylamino)-2′-chloro-6′-trifluoromethyl-biphenyl-4-sulfonylmethyl]-piperidine-1-carboxylic acid tert-butyl ester], the concentration for a half-maximal effect (EC50) in test [1] came out at 0.017 µM; in test [2] it was 3.09 µM.

Consider `CN1CCN(S(=O)(=O)c2ccc(-c3c(Cl)cc(Nc4n[nH]c(N)n4)cc3C(F)(F)F)cc2)CC1` [Compound 22, N*3*-[2-Chloro-4′-(4-methyl-piperazine-1-sulfonyl)-6-trifluoromethyl-biphenyl-4-yl]-1H-[1,2,4]triazole-3,5-diamine], for which the 50% effective concentration (EC50) in test [1] came to 0.053 µM; in test [2], 13.5 µM.

As to `Nc1nc(Nc2cc(Cl)c(-c3ccc(S(=O)(=O)N[C@H]4C[C@@H](O)C4)cc3)c(C(F)(F)F)c2)n[nH]1` [Compound 174, 4′-(5-amino-1H-1,2,4-triazol-3-ylamino)-2′-chloro-N-(cis-3-hydroxycyclobutyl)-6′-(trifluoromethyl)biphenyl-4-sulfonamide], the concentration for a half-maximal effect (EC50) in test [1] is 0.038 µM; in test [2], greater than 10 µM.

In the case of `CC(C)(C)OC(=O)N1CC[C@H](Oc2ccc(-c3c(Cl)cc(Nc4n[nH]c(N)n4)cc3Cl)cc2)C1` [Compound 273, (S)-3-[4′-(5-Amino-1H-[1,2,4]triazol-3-ylamino)-2′,6′-dichloro-biphenyl-4-yloxy]-pyrrolidine-1-carboxylic acid tert-butyl ester], the EC50 was 0.28 µM in test [1] and greater than 10 µM in test [2].

On to `Nc1nc(Nc2cc(Cl)c(-c3ccc(S(=O)(=O)N4CCC(F)(F)C4)cc3)c(C(F)(F)F)c2)n[nH]1` [Compound 62, N*3*-[6-Chloro-4′-(3,3-difluoro-pyrrolidine-1-sulfonyl)-2-trifluoromethyl-biphenyl-4-yl]-1H-[1,2,4]triazole-3,5-diamine], for which the values for the 50% effective concentration (EC50) in test [1] and in test [2] were 0.02 µM and greater than 10 µM, respectively.

Take `NCCCCOc1ccc(-c2c(Cl)cc(Nc3n[nH]c(N)n3)cc2Cl)cc1` [Compound 49, N*3*-[4′-(4-Amino-butoxy)-2,6-dichloro-biphenyl-4-yl]-1H-[1,2,4]triazole-3,5-diamine; trifluoro-acetate]: the EC50 in test [1] is 0.455 µM; in test [2], greater than 10 µM.

`Nc1nc(Nc2cc(Cl)c(-c3ccc(OCCC4CCCN4)cc3)c(Cl)c2)n[nH]1` (centres unmarked) [Compound 264, N*3*-[2,6-Dichloro-4′-(2-pyrrolidin-2-yl-ethoxy)-biphenyl-4-yl]-1H-[1,2,4]triazole-3,5-diamine]: the EC50 is 0.048 µM in test [1] and 6.5 µM in test [2].

For `Nc1nc(Nc2cc(Cl)c(-c3ccc(S(=O)(=O)C4CCCN(CCC(F)(F)F)C4)cc3)c(C(F)(F)F)c2)n[nH]1` (centres unmarked) [Compound 11, N*3*-{2-Chloro-6-trifluoromethyl-4′-[1-(3,3,3-trifluoro-propyl)-piperidine-3-sulfonyl]-biphenyl-4-yl}-1H-[1,2,4]triazole-3,5-diamine; hydrochloride], the EC50 in test [1] came out at 0.017 µM; in test [2], 6.78 µM.

`CS(=O)(=O)c1ccc(-c2c(Cl)cc(Nc3n[nH]c(N)n3)cc2Cl)cc1C(F)(F)F` [Compound 14, N*3*-(2,6-Dichloro-4′-methanesulfonyl-3′-trifluoromethyl-biphenyl-4-yl)-1H-[1,2,4]triazole-3,5-diamine]: the 50% effective concentration (EC50) in test [1] was determined as 0.052 µM; in test [2], 0.12 µM.

For `N#Cc1ccc(-c2c(F)cc(Nc3nc(N)n[nH]3)cc2C(F)(F)F)cc1` [Compound 79, 4′-(5-Amino-2H-[1,2,4]-triazol-3-ylamino)-6′-fluoro-2′-trifluoromethyl-biphenyl-4-carbonitrile], the 50% effective concentration (EC50) in test [1] came out at 0.483 µM; in test [2], 8.11 µM.

Consider `CC(C)(C)CCNCCOc1ccc(-c2c(Cl)cc(Nc3n[nH]c(N)n3)cc2C(F)(F)F)cc1` [Compound 136, N*3*-{6-Chloro-4′-[2-(3,3-dimethyl-butylamino)-ethoxy]-2-trifluoromethyl-biphenyl-4-yl}-1H-[1,2,4]triazole-3,5-diamine hydrochloride], for which the EC50 in test [1] was determined as 0.005 µM; in test [2], 3.08 µM.

`Nc1nc(Nc2cc(Cl)c(-c3ccc(NC(=O)C4CCS(=O)(=O)CC4)cc3)c(C(F)(F)F)c2)n[nH]1` [Compound 239]: the half-maximal effective concentration (EC50) in test [1] was 0.122 µM; in test [2], greater than 10 µM.

On to `Nc1nc(Nc2cc(Cl)c(-c3ccc(OC4CCNCC4)cc3)c(C(F)(F)F)c2)n[nH]1` [Compound 139, N*3*-[6-Chloro-4′-(piperidin-4-yloxy)-2-trifluoromethyl-biphenyl-4-yl]-1H-[1,2,4]triazole-3,5-diamine hydrochloride], for which the 50% effective concentration (EC50) in test [1] turned out to be 0.042 µM; in test [2] it was 5.66 µM.
